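Growth conditions: 96-well plates. Treatment: test compound, 48 hours, 5 concentrations. Analysis: linear interpolation between bracketing concentrations; unreached endpoints set to highest concentration. GI50 marks 50% less growth.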 Activity calls are given as the source filed them. No stated cut-off is given here; in the data, active = GI50 up to about 1.1 µM and inactive = higher. Some results are limits rather than exact numbers.

This is an account of results in ChEMBL document CHEMBL1201862, “PubChem BioAssay data set” (2004).

Some test systems named below: CAKI-1; HCC 2998; HCT-15; HL-60; HOP-62; K562; LOX IMVI; MDA-MB-231; NCI-H226; NCI-H23; NCI-H460; NCI-H522; OVCAR-3; SK-MEL-28; SK-OV-3; SNB-19; TK-10; UACC-257; SR; BT-549.
Assay in all cases: DTP human tumour cell line panel, 48 h

As for `CCCCCCCCCCCCC/C=C/[C@@H](O)[C@H](COC1OC(CO)C(OC2OC(CO)C(O)C(OC3(C(=O)O)CC(O)C(NC(C)=O)C(C(O)C(O)CO)O3)C2O)C(O)C1O)N=[N+]=[N-]` (stereo partly specified), the GI50 (as a rule, the concentration at which growth is held to half of that of the control) in the assay on CAKI-1 was > 100 µM (inactive); with HCC 2998, > 100 µM (inactive); in the assay with HCT-15, 72.9 µM; with HL-60, 37.5 µM (inactive); in the assay with HOP-62 it was 20.5 µM (inactive); with K562, 27.4 µM (inactive). In addition, the GI50 with LOX IMVI was 20.2 µM (inactive); with MDA-MB-231, > 100 µM (inactive); in the assay on NCI-H226, 20.8 µM (inactive); in the assay with NCI-H23 it was > 100 µM (inactive); in the assay on NCI-H460 it was 36.9 µM (inactive); in the assay with NCI-H522, 32.5 µM (inactive). The GI50 with OVCAR-3 is > 100 µM (inactive); in the assay on SK-MEL-28 it was 30.3 µM (inactive); in the assay on SK-OV-3, 31.2 µM (inactive); in the assay with SNB-19, 34 µM (inactive); in the assay with TK-10, > 100 µM (inactive); in the assay with UACC-257, 40 µM (inactive).

As to `CCN(CCCl)c1cc(CN(C)C)cc(NC(=O)c2ccc(C(=O)Nc3cccc(CN(C)C)c3)cc2)c1`, the GI50 was 32.6 µM (inactive) in the assay with CAKI-1; 1.26 µM (inactive) in the assay with HCC 2998; 32.4 µM with HCT-15; 0.0467 µM (active) in the assay on HL-60; 0.326 µM (active) in the assay with HOP-62; 0.321 µM (active) with K562. In addition, the GI50 is 0.201 µM (active) with LOX IMVI; 28.1 µM (inactive) in the assay on MDA-MB-231; 3.21 µM (inactive) in the assay with NCI-H226; 1.54 µM (inactive) with NCI-H23; 0.716 µM (active) with NCI-H460; 0.0161 µM (active) in the assay with NCI-H522. In addition, the GI50 in the assay on SK-MEL-28 is 2.07 µM (inactive); in the assay with SK-OV-3, 1.91 µM (inactive); with SNB-19, 0.286 µM (active); with SR, 0.275 µM (active); in the assay with TK-10 it was 3.73 µM (inactive); in the assay on UACC-257, 1.83 µM (inactive).

Consider `CCOC(=O)CO/N=C1/C(=C2/C(=O)Nc3ccccc32)Nc2ccccc21`, for which the GI50 in the assay with BT-549 was 78.3 µM (inactive); in the assay with CAKI-1 it was 20.1 µM (inactive); in the assay with HCC 2998 it was > 100 µM (inactive); with HCT-15, 81.7 µM; in the assay on HL-60 it was > 100 µM (inactive); with HOP-62, 8.3 µM (inactive). Besides, the GI50 was > 100 µM (inactive) with K562; > 100 µM (inactive) with LOX IMVI; 7.4 µM (inactive) in the assay on MDA-MB-231; 17 µM (inactive) with NCI-H23; > 100 µM (inactive) with NCI-H460; > 100 µM (inactive) in the assay with NCI-H522. The GI50 with OVCAR-3 is 12.4 µM (inactive); in the assay on SK-MEL-28, > 100 µM (inactive); in the assay with SK-OV-3 it was 13.6 µM (inactive); with SNB-19 it was 10 µM (inactive); in the assay on TK-10 it was 86.3 µM (inactive); in the assay on UACC-257, > 100 µM (inactive).

`COc1cc(/C=C2/C[C@H]3[C@@H]4CCC5=CC(=O)CC[C@]5(C)[C@H]4CC[C@]3(C)NC2=O)cc(OC)c1OC`: the GI50 with BT-549 is 21.6 µM (inactive); in the assay on CAKI-1, 25.9 µM (inactive); with HCC 2998, 21.1 µM (inactive); with HCT-15, 21.5 µM; with HL-60, 13.2 µM (inactive); with HOP-62, 27.9 µM (inactive). Besides, the GI50 in the assay with MDA-MB-231 is 19.7 µM (inactive); with NCI-H226, 28.8 µM (inactive); in the assay on NCI-H23, 21.3 µM (inactive); in the assay on NCI-H460, 28.4 µM (inactive); in the assay on NCI-H522 it was 14.1 µM (inactive); with OVCAR-3, 43.7 µM (inactive). In addition, the GI50 with SK-MEL-28 is 29 µM (inactive); with SK-OV-3, 30.7 µM (inactive); in the assay on SNB-19, 45 µM (inactive); with TK-10 it was 16.2 µM (inactive); with UACC-257 it was 20.7 µM (inactive).

Consider `COC1=CCC2=C(CCN(C(=O)C3CCC3)C2Cc2ccc(OC)c(O)c2)C1` (stereo unspecified), for which the GI50 is 30.6 µM (inactive) with CAKI-1; 15.1 µM (inactive) in the assay with HCC 2998; 4.85 µM with HCT-15; 4.3 µM (inactive) in the assay with HL-60; 14.3 µM (inactive) in the assay on HOP-62; 4.45 µM (inactive) in the assay on K562. Further, the GI50 is 36.6 µM (inactive) with LOX IMVI; 21.1 µM (inactive) with MDA-MB-231; 49.1 µM (inactive) with NCI-H226; 10 µM (inactive) in the assay on NCI-H23; 12.2 µM (inactive) in the assay on NCI-H460; 16.6 µM (inactive) with NCI-H522. Further, the GI50 was 5.93 µM (inactive) in the assay with OVCAR-3; 45.3 µM (inactive) in the assay on SK-MEL-28; 20.5 µM (inactive) with SK-OV-3; 35.8 µM (inactive) in the assay on SNB-19; 5.69 µM (inactive) in the assay with SR; 17.5 µM (inactive) in the assay with TK-10. Moreover, the GI50 in the assay with UACC-257 is 17.3 µM (inactive).

Consider `c1ccc2c(c1)N[C@@H]1c3[nH]c4ccccc4c3CC[C@H]21`, for which the GI50 is 18.8 µM (inactive) in the assay with BT-549; 18.2 µM (inactive) in the assay with CAKI-1; 23 µM with HCT-15; 16.1 µM (inactive) with HL-60; 13.3 µM (inactive) in the assay with HOP-62; 14 µM (inactive) in the assay on K562. The GI50 in the assay with LOX IMVI was 16 µM (inactive); in the assay on MDA-MB-231, 15.5 µM (inactive); in the assay with NCI-H226 it was 12.5 µM (inactive); in the assay on NCI-H23 it was 15.8 µM (inactive); with NCI-H460, 16.8 µM (inactive); with NCI-H522, 11.6 µM (inactive). Besides, the GI50 was 13.9 µM (inactive) with OVCAR-3; 18.5 µM (inactive) in the assay on SK-MEL-28; 14.6 µM (inactive) in the assay with SK-OV-3; 17.6 µM (inactive) in the assay with SNB-19; 37 µM (inactive) with TK-10; 26.9 µM (inactive) in the assay on UACC-257.

In the case of `NC(=S)N/N=C1\CCCCC1C(O)(C(F)(F)Cl)C(F)(F)Cl` (stereo unspecified), the GI50 in the assay with BT-549 is > 10 µM (inactive); with HCC 2998, > 10 µM (inactive); in the assay with HCT-15, above 10 µM; with HL-60 it was > 10 µM (inactive); in the assay with HOP-62 it was > 10 µM (inactive); in the assay with K562, > 10 µM (inactive). For the same compound, the GI50 in the assay on LOX IMVI, in the assay with MDA-MB-231, in the assay with NCI-H226, in the assay with NCI-H23, in the assay on NCI-H460 and with NCI-H522 was > 10 µM (inactive) each time. The GI50 in the assay with OVCAR-3, in the assay with SK-MEL-28, with SK-OV-3, in the assay with SNB-19, in the assay on TK-10 and in the assay on UACC-257 was > 10 µM (inactive) throughout.

Take `COc1cccc(/C(C=O)=C(\Cl)c2ccc(OC)c(OC)c2)c1`: the GI50 in the assay with CAKI-1 was 29.2 µM (inactive); in the assay on HCC 2998, 16.1 µM (inactive); with HCT-15, 12.9 µM; with HL-60, 3.97 µM (inactive); in the assay on HOP-62 it was 12.3 µM (inactive); in the assay on K562, 13.6 µM (inactive). Moreover, the GI50 with LOX IMVI is 15 µM (inactive); with NCI-H226, 14 µM (inactive); in the assay on NCI-H23 it was 12.2 µM (inactive); in the assay with NCI-H460, 13.3 µM (inactive); in the assay with NCI-H522 it was 10.3 µM (inactive); in the assay with OVCAR-3 it was 16.6 µM (inactive). The GI50 is 15.1 µM (inactive) with SK-MEL-28; 26.1 µM (inactive) in the assay on SK-OV-3; 3.94 µM (inactive) in the assay on SNB-19; 13.5 µM (inactive) in the assay on SR; 28.1 µM (inactive) in the assay with TK-10; 14.4 µM (inactive) in the assay on UACC-257.

As for `COc1ccc2[nH]c3c([N+](=O)[O-])ccc(NCCN(C)C)c3/c(=N/CCN(C)C)c2c1`, the GI50 was 3.97 µM (inactive) with CAKI-1; 0.867 µM (active) in the assay with HCC 2998; 1.31 µM in the assay with HCT-15; 1.31 µM (inactive) with HL-60; 0.695 µM (active) in the assay on HOP-62; 1.22 µM (inactive) in the assay with K562. Also, the GI50 in the assay with LOX IMVI was 1.62 µM (inactive); in the assay with MDA-MB-231, 1.28 µM (inactive); in the assay with NCI-H23, 1.49 µM (inactive); in the assay with SK-MEL-28, 2.26 µM (inactive); in the assay with SK-OV-3, 2.85 µM (inactive); with SR it was 0.117 µM (active). In addition, the GI50 in the assay with TK-10 was 3.13 µM (inactive); with UACC-257, > 10 µM (inactive).

Consider `N=C(N)N/N=C/c1c(-c2ccc(Cl)cc2)nc2n1CCS2`, for which the GI50 with BT-549 was 14.5 µM (inactive); in the assay on CAKI-1 it was 14.8 µM (inactive); in the assay with HCC 2998, 3.04 µM (inactive); in the assay with HCT-15, 14.3 µM; in the assay with HL-60, 31.1 µM (inactive); in the assay on HOP-62, 12.6 µM (inactive). Further, the GI50 in the assay with K562 was 2.98 µM (inactive); with LOX IMVI, 4.49 µM (inactive); in the assay with NCI-H226, 20.1 µM (inactive); in the assay with NCI-H23 it was > 10 µM (inactive); in the assay with NCI-H460, 13.1 µM (inactive); in the assay with NCI-H522, 12.8 µM (inactive). The GI50 in the assay on OVCAR-3 was 8.18 µM (inactive); in the assay on SK-MEL-28, 12.7 µM (inactive); with SK-OV-3, 13.9 µM (inactive); with SNB-19 it was 15.6 µM (inactive); in the assay with SR, 7.16 µM (inactive); with TK-10, 15.7 µM (inactive). Moreover, the GI50 with UACC-257 was 14.3 µM (inactive).

With `C=CC/C=C/Cc1csc(C(C)(C)C(O)C/C=C/C(=C)CCNC(=O)OC)n1` (stereo unspecified), the GI50 with BT-549 is 3.33 µM (inactive); with CAKI-1 it was > 67 µM (inactive); with HCC 2998 it was > 95.3 µM (inactive); in the assay on HCT-15, 44.1 µM; in the assay with HL-60, 9.71 µM (inactive); in the assay with HOP-62, > 100 µM (inactive). Moreover, the GI50 in the assay with K562 was 0.845 µM (active); in the assay with LOX IMVI it was 44.6 µM (inactive); in the assay with NCI-H226, > 100 µM (inactive); in the assay on NCI-H23 it was 0.245 µM (active); in the assay on NCI-H460, 29.5 µM (inactive); with NCI-H522, 19.1 µM (inactive). The GI50 is 24.8 µM (inactive) in the assay with OVCAR-3; > 87.1 µM (inactive) with SK-MEL-28; > 85.3 µM (inactive) in the assay with SK-OV-3; > 100 µM (inactive) in the assay on SNB-19; 0.492 µM (active) in the assay on SR; > 100 µM (inactive) in the assay on TK-10. Besides, the GI50 in the assay with UACC-257 was 1.49 µM (inactive).
